Patent US12599606B2, “Therapies with 3rd generation EGFR tyrosine kinase inhibitors” (Janssen Biotech, Inc., priority 2019, dated 2026)

Key:
[1] = test system: EGFR mutation positive (EGFRm+) advanced NSCLC; assay: Clinical Trial No. NCT03046992, phase I/II lazertinib monotherapy; format: in vivo, human; conditions: for ORR, (%): T790M+ patients
Text: Clinical Trial No. NCT03046992 was primarily designed to evaluate the safety, tolerability, and efficacy of YH25448 in patients with EGFR mutation positive (EGFRm+) advanced NSCLC with or without asymptomatic brain metastasis who progressed following prior therapy with an EGFR TKIs agent.
Patients with advanced and metastatic NSCLC who had progressed after treatment with EGFR-TKIs with/without asymptomatic brain metastases (BM) were enrolled in an open-label, multicenter, phase I/II study with dose-escalation and expansion cohorts. Lazertinib was administered once daily at doses between 20 to 320 mg in a 21-day cycle. Patients were assessed for safety, tolerability, pharmacokinetics and efficacy. T790M status was confirmed in the dose-expansion cohorts.

[2] = test system: EGFR Dell9/T790M mutant lung adenocarcinoma; conditions: one patient, 40 mg daily, cited from earlier work
[3] = test system: H1975 human lung xenografts; assay: H1975 human lung carcinoma xenograft model, antitumor activity
Protocol: The animals were fed ad libitum water (reverse osmosis, 1 ppm Cl) and NIH 31 Modified and Irradiated Lab Diet® consisting of 18.0% crude protein, 5.0% crude fat, and 5.0% crude fiber. The mice were housed on irradiated Enrich-o'cobs™ Laboratory Animal Bedding in static microisolators on a 12-hour light cycle at 20-22° C. (68-72° F.) and at 40-60% humidity. All studies complied with the recommendations of the Guide for Care and Use of Laboratory Animals with respect to restraint, husbandry, surgical procedures, feed and fluid regulation, and veterinary care. […]
On the day of implant, the NCI-H1975 cells were harvested during log phase growth and resuspended in phosphate buffered saline (PBS) at a concentration of 5×10^7 cells/mL. Xenografts were initiated by subcutaneously implanting 5×10^6 NCI-H1975 cells per animal (0.1 mL suspension) into the right flank of each test animal and tumors were monitored as their volumes approached the target range of 150-200 mm^3. Fifteen days later, animals were sorted into bins by calculated tumor volumes based on vernier caliper measurements of tumor width and length to the nearest mm. […] Tumor size, in mm3, was calculated using the following formula: Tumor Volume=(w^2×l)/2 where w=width and l=length, in mm, of the tumor. […]

[4] = test system: H1975-HGF xenografts; assay: H1975-HGF human lung carcinoma xenograft model, antitumor activity
Protocol: (§1) Female athymic nude mice were used in the studies (n=10/group). Treatment began when SC tumors reached approximately 100 to 300 mm^3 in size. and dosing was initiated according to the treatment plan summarized in Table 2. […] The control group was dosed with vehicle orally daily for 21 days, and the isotype control antibody was dosed twice a week IP for 3 weeks. Mice were monitored for body weight and tumor volume up to Day 95, and were euthanized when individual tumor volume reached 2,000 mm^3 or at study conclusion.
Tumor volume data were graphically represented as the mean tumor volume±SEM. Tumor volume was calculated using the formula: tumor volume (mm^3)=(D×d2)/2; where ‘D’ represents the larger diameter, and ‘d’ the smaller diameter of the tumor as determined by caliper measurements.
The % TGI was defined as the difference between mean tumor burden of the treated and control group, calculated as % ΔTGI=([(TVc−TVc0)−(TVt−TVt0)]/(TVc−TVc0))×100 where ‘TVc’ is the mean tumor burden of a given control group, ‘TVc0’ is the mean initial tumor burden of a given control group, ‘TVt’ is the mean tumor burden of the treated group, and ‘TVt0’ is the mean initial tumor burden of the treated group. […]
Survival data was graphed and analyzed using GraphPad Prism 7.04 for Windowswith day 1 as the treatment start date. […]

[5] = Body weight and clinical signs of nude mice bearing H1975 xenografts; conditions: for body weight loss compared to the control group: H1975-xenograft-bearing nude mice, Day 29, 10 mg/kg; for animals euthanized due to negative clinical signs: H1975 model, n=10/group, unclear whether due to tumor burden or treatment
Protocol: The mice were housed on irradiated Enrich-o'cobs™ Laboratory Animal Bedding in static microisolators on a 12-hour light cycle at 20-22° C. (68-72° F.) and at 40-60% humidity.
as §1
(§2) Relative body weight of individual mice was calculated using the formula: (W/W0)×100, where ‘W’ represents body weight on a particular day, and ‘W0’ represents body weight at initiation of treatment. Body weight was graphically represented as mean % of initial body weight±SEM.
Tumor volume and body weight data were graphically represented using Prism software (GraphPad, version 7). Statistical significance was evaluated for all pairwise comparisons on the last day of the study when at least eight mice remained in each group. Differences between groups were considered significant when p≤0.05. Statistical significance of tumor volume and body weight was calculated using the Linear Mixed-Effects analysis in R software version 3.4.2 (using Janssen's internally developed Shiny application version 3.3), with treatment and time as fixed effects and animal as random effect. Logarithmic transformation (base 10) was performed if individual longitudinal response trajectories were not linear. The information derived from this model was used to make pairwise treatment comparisons to the control group or between all the treatment groups.

[6] = Body weight and clinical signs of nude mice bearing H1975-HGF xenografts; format: in vivo; conditions: H1975-HGF model, n=10/group; unclear whether due to tumor burden or treatment
Protocol: as §1, §2
Tumor volume and body weight data were graphically represented using Prism software (GraphPad, version 7). Statistical significance was evaluated for all pairwise comparisons on the last day of the study when at least eight mice remained in each group. Differences between groups were considered significant when p≤0.05. Statistical significance of tumor volume and body weight was calculated using the Linear Mixed-Effects analysis in R software version 3.4.2 (using Janssen's internally developed Shiny application version 3.3), with treatment and time as fixed effects and animal as random effect. […]

[7] = test system: advanced NSCLC; assay: Study 61186372EDI1001, Phase 1 first-in-human dose escalation of JNJ-61186372 as monotherapy and in combination with lazertinib; format: in vivo
Text: This study is a first-in-human, open-label, multicenter, 2-part, Phase 1 dose escalation study to evaluate the safety and PK, establish a recommended Phase 2 dose (RP2D) and recommended Phase 2 combination dose (RP2CD) regimen, and to assess the preliminary efficacy of JNJ-61186372 as a monotherapy and in combination with lazertinib in subjects who are≥18 years of age with advanced NSCLC.
Part 1 JNJ-61186372 Monotherapy and Combination Dose Escalations: A traditional 3+3 design will be utilized to determine the MTD (or the maximum administered dose [MAD] if no MTD is defined) and the RP2D regimen(s) for JNJ-61186372 monotherapy, and the RP2CD of the JNJ-61186372 and lazertinib combination, in subjects with advanced NSCLC. The total number of subjects enrolled in each dose escalation will depend on the dose level at which the MTD or MAD is reached, and whether dose cohort expansions are indicated. […]
Anti-tumor activity will be evaluated by clinical responses as per the Response Evaluation Criteria in Solid Tumors (RECIST v1.1) (Eisenhauer et al.., Eur J Cancer 2009;45(2):228-247) The investigator will evaluate sites of disease by radiological imaging, physical examination, and other procedures, as necessary, and all results will be recorded in the case report form (CRF). […]

[8] = monotherapy, EGFR-mutated NSCLC
[9] = Day 28, as compared to controls, 10 mg/kg

## C=CC(=O)Nc1cc(Nc2nccc(-n3cc(CN(C)C)c(-c4ccccc4)n3)n2)c(OC)cc1N1CCOCC1 [Lazertinib, N-(5-(4-(4-((dimethylamino)methyl)-3-phenyl-1H-pyrazol-1-yl)pyrimidin-2-ylamino)-4-methoxy-2-morpholinophenyl)acrylamide]
[1]; 20 to 320 mg once daily
  systemic exposure: increased dose-dependently
[1]; 93 T790M+ patients
  ORR: 69%
[1]; 115 patients
  TEAE constipation: 12%
  TEAE decreased appetite: 17%
  TEAE of grade ≥3 hyponatraemia: 2%
  TEAE of grade ≥3 nausea: 2%
  TEAE of grade ≥3 pneumonia: 2%
  TEAE pruritus: 19%
  TEAE rash: 14%
[1]; EGFR T790M+ NSCLC patients, multiple dose levels
  tolerability: well tolerated
[1]; 20 mg QD, 2 evaluable
  ORR, (%): 100%
[1]; 40 mg QD, 25 evaluable
  ORR, (%): 68%
[1]; 80 mg QD, 18 evaluable
  ORR, (%): 61%
[1]; 120 mg QD, 22 evaluable
  ORR, (%): 77%
[1]; 160 mg QD, 18 evaluable
  ORR, (%): 61%
[1]; 240 mg QD, 8 evaluable
  ORR, (%): 75%
[1]; dose-escalation cohort, 38 patients, 20 to 320 mg
  dose-limiting toxicities: No dose-limiting toxicities were observed
[1]; evaluable patients (n=110) at data cut-off, 20 to 320 mg once daily
  objective response rate (ORR): 65%
[1]; monotherapy FIH dose escalation, through 320 mg
  DLTs: no DLTs were observed
[1]; [8]
  dose from which clinical activity was demonstrated in the targeted population: 240 mg
[1]; patients with BM (n=12)
  intracranial ORR: 50%
[2]; tumor assessment after 6 weeks
  extracranial tumor reduction: 12.7%
  intracranial tumor reduction: 49.3%
  overall tumor reduction: 25.9%
[2]
  adverse events: without significant adverse events
[3]; n=10/group, mice with CR
  CR (complete tumor regression): 1 of 10
[4]; n=10/group, mice with CR
  CR (complete tumor regression): 2 of 10
[5]
  body weight loss compared to the control group: some transient body weight loss
  animals euthanized due to negative clinical signs: One

## C=CC(=O)Nc1cc(Nc2nccc(-c3cn(C)c4ccccc34)n2)c(OC)cc1N(C)CCN(C)C [Osimertinib, osimertinib, reference compound]
[6]
  mice found dead or euthanized due to negative clinical signs: One
[5]
  body weight loss compared to the control group: some transient body weight loss

## JNJ-372
[6]
  mice found dead or euthanized due to negative clinical signs: One
[7]; monotherapy FIH dose escalation, through 1400 mg
  DLTs: no DLTs were observed
[7]; [8]
  dose from which clinical activity was demonstrated in the targeted population: 700 mg
[3]; [9]
  TGI: 86%
[4]; [9]
  TGI: 70%
[5]
  animals euthanized due to negative clinical signs: One
